Source: US11877990B1, “Agmatine compositions for treatment of osteoarthritis” (priority 2022, dated 2024)

Assays:
[1] = test system: bilateral knee osteoarthritis; assay: Agmatine Administration Case 1: self-treatment and self-rating of knee osteoarthritis symptoms (WOMAC Index, VAS); assay type: in vivo, human; conditions: for VAS Score / WOMAC (% Total Score): treatment duration 12-14 months
Excerpt: Two study participants, each suffering from bilateral knee osteoarthritis, were consecutively self-treated as shown in the following Table 1: Treatment started with acetaminophen (as TYLENOL®, considered standard drug treatment) used as a rescue medication for the duration of their symptoms, 12 or 14 months as needed, followed by a 12-week treatment period of acetaminophen plus agmatine (taken as the G-AGMATINE® brand of agmatine sulfate). The participants self-rated their OA symptoms according to the WOMAC (Western Ontario and McMaster Universities Osteoarthritis) Index and according to the Visual Analog (pain) Scale (VAS). They had bilateral symptoms of mild-to-moderate chronic, frequent knee pain typical of knee OA according to WOMAC, score range of >25 and <100. Table 1 presents a summary of the participants' characteristics and treatment assessment at the indicated follow-up times. For the entire acetaminophen-only treatment, the dosage was 500 milligrams per caplet, and the frequency was two caplets every six hours, as needed (i.e., 1000 mg per six-hour period). For the acetaminophen plus agmatine regimen, the participants' initial dosage of acetaminophen was 500 milligrams per caplet with an initial dosage of agmatine of 450 milligrams per capsule. While the frequency of acetaminophen dosage for both participants remained two caplets every six hours, the frequency of the agmatine capsules was six capsules daily (i.e., 2,700 mg per day). […] Participant 1 eliminated acetaminophen after six weeks, and participant 2 eliminated acetaminophen after eight weeks of treatment. Thereafter, the participants were taking only agmatine and reduced the quantity of agmatine by one third (i.e., a regimen of 1,800 mg per day).

[2] = humans, ingested; cited from earlier work
[3] = test system: bilateral knee osteoarthritis; assay: Agmatine Administration Case 2: consecutive self-treatment with acetaminophen, GCM formulation and agmatine (VAS, WOMAC); assay type: in vivo, human; conditions: agmatine taken with acetaminophen and with acetaminophen/GCM formulation
Excerpt: In a second study, four participants had bilateral symptoms of mild-to-moderate chronic, frequent knee pain typical of knee osteoarthritis according to a WOMAC Index score range of >25 and <100. They are compared in Table 2. Participants began taking acetaminophen (as TYLENOL®) as needed over the course of the symptom duration: Referring to FIG. 1, the four participants self-treated consecutively as follows: starting with Acetaminophen (as TYLENOL®, considered a standard drug treatment) used as a rescue medication for the duration of their symptoms for 4 to 6 months, followed by a sixty-day treatment period with acetaminophen plus a GCM formulation (i.e., glucosamine HCl, chondroitin sulfate, and methylsulfonylmethane (MSM)). The GCM formulation was followed by sixty-day period using a combination comprising acetaminophen, the GCM formulation, and agmatine (taken as the G-AGMATINE® brand of agmatine sulfate). […] Referring to FIG. 3, changes in the WOMAC ratings are shown, expressed as a percentage of total scores, at the specified time intervals after initiation of each of the acetaminophen (labeled “acet in the figure), acetaminophen and GCM formulation, and the combination acetaminophen/GCM formulation/agmatine treatment regimens. […]

SMILES: CC(=O)Nc1ccc(O)cc1 [Acetaminophen]
- VAS Score ([1]; Participant #1, acetaminophen as needed): 6.0
- WOMAC (% Total Score) ([1]; Participant #1, acetaminophen as needed (entry two)): 83.3 % Total Score
- WOMAC (% Total Score) ([1]; Participant #2 (person one), acetaminophen as needed): 85.4 % Total Score
- VAS Score ([1]; Participant #2, acetaminophen as needed): 6.5

SMILES: N=C(N)NCCCCN [Agmatine]
- Effect on OA symptoms (in words) ([1]; agmatine taken with acetaminophen, two participants): dramatic improvement in OA symptoms
- apparent blood half-life [2]: about two
- Effect on improving OA symptoms (in words) [3]: unexpected synergistic effect
